`Nc1ccc2c(n1)[nH]c1ccccc12` registered a melting point of 202 °C.

Take `Cc1nc2ccccc2s1`: the boiling point worked out at 238 °C, the log10 vapour pressure (mmHg) is -1.52 and the melting point was determined as 14 °C.

As for `CCC(CC)(CC)CC`, the boiling point amounted to 146 °C, the log10 vapour pressure (mmHg) was 0.863 and the melting point was -33.1 °C.

In turn, `C=COC` came in with a boiling point of 5.5 °C, a log10 vapour pressure (mmHg) of 3.12 and a melting point of -122 °C.

On to `FCCCCl`, for which the boiling point came out at 80 °C.

`FC(F)(F)C(Cl)Br` (configuration not stated) had a boiling point of 50.2 °C, a log10 Henry constant (atm·m³/mol) of -1.69, a log10 vapour pressure (mmHg) of 2.48 and a melting point of -118 °C.

For `CCN1CCNC(=O)C1=O`, the melting point worked out at 108 °C.

`CCOC(=O)c1c[nH]c(=S)[nH]c1=O`: the melting point was found to be 252 °C.

Compound `CCCCCCCC(=O)c1ccccc1` yielded a boiling point of 285 °C and a melting point of 22.8 °C.

Compound `CNC(=O)N(C)c1nc2ccccc2s1` showed a log10 Koc (L/kg) of 2.8, a log10 vapour pressure (mmHg) of -6.95 and a melting point of 120 °C.

As for `BrCCCCCCCCCCCCCCBr`, the melting point was found to be 50.4 °C.

The compound `CC(=CC(=O)c1ccccc1)c1ccccc1` showed a boiling point of 342 °C.

Turning to `C#Cc1ccccc1`, the boiling point is 143 °C, the log10 vapour pressure (mmHg) stood at 0.314 and the melting point is -44.8 °C.

As to `Cn1c(=O)c2c(ncn2CCOC(=O)c2cccnc2)n(C)c1=O`, the melting point turned out to be 152 °C.

`ClC(Cl)(Cl)C1CO1` (configuration not stated) displayed a boiling point of 149 °C.

On to `O=c1oc(=O)c2ccccc2c2ccccc12`, for which the melting point stood at 217 °C.

`CC(C)(C)CC(=O)OCC(=O)[C@@]1(O)CC[C@H]2[C@@H]3CCC4=CC(=O)CC[C@]4(C)[C@H]3[C@@H](O)C[C@@]21C` showed a melting point of 168 °C.

The compound `CC(=O)c1ccc(Cl)cc1` yielded a boiling point of 232 °C and a melting point of 20 °C.

Compound `COC(=O)C(C)(C)O` had a boiling point of 137 °C.

In turn, `Cc1cc(=O)[nH]o1` had a log10 vapour pressure (mmHg) of -2.86 and a melting point of 86.5 °C.

For `OCC1CCC(CO)O1` (configuration not stated), the boiling point is 265 °C.

Take `COc1ccc(N=[N+]([O-])c2ccc(OC)cc2)cc1`: the melting point came out at 127 °C.

In turn, `CCCCCCCCCCCCCCCc1cccc(O)c1O` came in with a melting point of 59.5 °C.

`Cc1cnc(C)c(C)n1` yielded a boiling point of 172 °C.

In the case of `O=c1c(O)c(-c2ccc(O)c(O)c2)oc2cc(O[C@@H]3O[C@H](CO)[C@@H](O)[C@H](O)[C@H]3O)cc(O)c12`, the melting point stood at 248 °C.

For `CCC=C(C)CO`, the boiling point is 168 °C.

Take `COc1cc2c(cc1O)CCN[C@@H]2C`: the melting point is 222 °C.

For `Fc1ccccc1C(F)(F)F`, the boiling point was 114 °C and the log10 vapour pressure (mmHg) was 1.58.

The compound `CC=C(C)C(C)(C)C` yielded a boiling point of 112 °C.

For the compound `CC(C)C1CCC(Cc2ccc(Cl)cc2)C1(O)Cn1cncn1` (configuration not stated), the log10 vapour pressure (mmHg) is -7.4 and the melting point is 89 °C.

`CCCCCCCCCCCCCCCC(=O)Cl` gave a melting point of 12 °C.

`CC(O)CCCCO` (configuration not stated) yielded a boiling point of 237 °C.

For the compound `CN(C)C(=O)Nc1ccc(Cl)cc1`, the log10 Koc (L/kg) was 1.95, the log10 vapour pressure (mmHg) is -6.3 and the melting point was 170 °C.

The compound `FC(F)(F)C(F)(F)C(F)(F)C(F)(C(F)(F)F)C(F)(F)F` showed a boiling point of 57.6 °C and a melting point of -119 °C.

For `COc1ccc(Br)cc1OC`, the boiling point is 254 °C.

For the compound `CCOC(=O)C(=Cc1ccccc1)C(=O)OCC`, the melting point amounted to 32 °C.

For the compound `O=C1OC(=O)c2c1ccc(Cl)c2Cl`, the boiling point was 329 °C and the melting point came to 121 °C.

`C1CCCCNCCC1` yielded a melting point of -19 °C.

`CC(=O)NC(C)=O`: the boiling point was 224 °C, the log10 vapour pressure (mmHg) was -2 and the melting point was 79 °C.

As for `O=C1CCCC1`, the boiling point amounted to 130 °C, the log10 Henry constant (atm·m³/mol) was -5, the log10 Koa is 3.67 and the log10 vapour pressure (mmHg) is 1.06. Besides, the melting point was -51.3 °C.

`CCC(C(C)C)C(C)C` showed a boiling point of 137 °C, a log10 vapour pressure (mmHg) of 1 and a melting point of -122 °C.

In the case of `Cc1cccc2[nH]ccc12`, the boiling point is 267 °C and the melting point came out at 5 °C.

For the compound `c1ccc2sc(SSc3nc4ccccc4s3)nc2c1`, the melting point worked out at 180 °C and the ready biodegradability result was “not readily biodegradable”.

As for `COc1ccccc1C1CCCCC1`, the boiling point is 268 °C.

`ClCC1CO1` (configuration not stated): the boiling point was 117 °C, the log10 Koc (L/kg) came to 1, the log10 vapour pressure (mmHg) was 1.22 and the melting point is -41.6 °C. In addition, the ready biodegradability entry is reported as “not readily biodegradable”.

Take `C1CCC(OC2CCCCC2)CC1`: the boiling point was determined as 242 °C and the melting point was -36 °C.

`CN(C)CCn1cnc2c1c(=O)n(C)c(=O)n2C` came in with a melting point of 95 °C.

In turn, `CCN(CC)C(=O)[C@@H]1C=C2c3cccc4[nH]c(Br)c(c34)C[C@H]2N(C)C1` gave a melting point of 124 °C.

`Nc1ccc(S(=O)(=O)c2ccc([N+](=O)[O-])cc2)cc1` yielded a melting point of 170 °C.

As to `CN(C)C=Nc1ccccc1`, the boiling point was determined as 127 °C.

What is called melting point is the temperature, or range, at which the solid turns liquid. For orientation: boiling point means the temperature of boiling at a given pressure.

The record behind these values is the OPERA property sets (Mansouri et al. 2018).
